Source: patent US20150010933A1, “Novel Screening Methods” (The Trustees of the University of Pennsylvania, priority 2012, published 2015)

Assays:
Format in all cases: biochemical
[1] = molecular target: ATP synthesis activity of M. smegmatis membranes; assay: ATP synthesis assay with M. smegmatis membranes (luciferase/luciferin luminescence, 384 well plate); settings: 10 μg/ml M. smegmatis membrane, 1 mM NADH, 25 μM ADP, 10 mM K-Pi, pH 7.0, total volume 20 μL; read-out: IC50, ATP synthesis activity normalized to the positive control
[2] = system: NADH oxidase activity of M. smegmatis membranes; assay: NADH oxidase activity assay with M. smegmatis membranes; settings: 0.2 mM NADH, 10 μg/ml membrane, pH 7.0
Description: FIG. 10 is a graph illustrating the effect of TMC207 on the NADH oxidase activity of M. smegmatis membranes. The assay was carried out in the presence of various concentrations of TMC207. The reactions contained 0.2 mM NADH and 10 μg/ml membrane in 50 mM Hepes/2 mM MgCl2 (pH 7.0) buffer.

[3] = system: ΔpH across M. smegmatis membranes; assay: ΔpH across the membranes monitored with pH sensitive fluorescent dye ACMA; settings: 1 μM ACMA, 10 μg/ml M. smegmatis membrane, initiated with 1 mM NADH, pH 7.0
Description: FIG. 11 is a graph illustrating the effect of TMC207 on ΔpH across the membranes. ΔpH was monitored by using a pH sensitive fluorescent dye 9-amino-6-chloro-2-methoxyaridine (ACMA). The reactions contained 1 μM ACMA, 10 μg/ml M. smegmatis membrane in 5 mM Hepes/2 mM MgCl2 buffer (pH 7.0). The reaction was initiated by addition of 1 mM NADH (open symbols) and NADH was omitted in negative controls (closed symbols). Fluorescence was measured by a plate reader with 420 nm for excitation and 510 nm for emission wavelength.

With `COc1nc2ccc(Br)cc2cc1[C@@H](c1ccccc1)[C@@](O)(CCN(C)C)c1cccc2ccccc12` [TMC207, (1R,2S)-1-(6-bromo-2-methoxy-3-quinolyl)-4-dimethylamino-2-(1-naphthyl)-1-phenyl-butan-2-ol] the IC50 [1] was 0.147 nM, the “inhibition of NADH oxidase activity” value ([2]; at 10 μM) was “did not inhibit” and the “inhibition of NADH oxidase activity” value ([2]; at only high concentrations) was “marginal inhibition”. The “effect on ΔpH across the membrane” value [3] was “did not affect”.
